Experimental data: US20230002367A1, “BIFUNCTIONAL COMPOUNDS” (Hoffmann-La Roche Inc., priority 2019, published 2023)

Target: T1, SMARCA2 (Homo sapiens, UniProt P51531)
T1 construct: endogenous in cells
Test: SMARCA2 HiBiT degradation assay (cellular)
Type: cell-based
Settings: for Emax: A549, Emax = amount of residual protein remaining in the cell following compound treatment; for DC50: SMARCA2 HiBiT cells, luminescence readout, 11-point titration from 10 μM, 6 hours or 16 hours, read-out: HiBit A549 SMARCA2 IP

T1 sequence (P51531 whole entry): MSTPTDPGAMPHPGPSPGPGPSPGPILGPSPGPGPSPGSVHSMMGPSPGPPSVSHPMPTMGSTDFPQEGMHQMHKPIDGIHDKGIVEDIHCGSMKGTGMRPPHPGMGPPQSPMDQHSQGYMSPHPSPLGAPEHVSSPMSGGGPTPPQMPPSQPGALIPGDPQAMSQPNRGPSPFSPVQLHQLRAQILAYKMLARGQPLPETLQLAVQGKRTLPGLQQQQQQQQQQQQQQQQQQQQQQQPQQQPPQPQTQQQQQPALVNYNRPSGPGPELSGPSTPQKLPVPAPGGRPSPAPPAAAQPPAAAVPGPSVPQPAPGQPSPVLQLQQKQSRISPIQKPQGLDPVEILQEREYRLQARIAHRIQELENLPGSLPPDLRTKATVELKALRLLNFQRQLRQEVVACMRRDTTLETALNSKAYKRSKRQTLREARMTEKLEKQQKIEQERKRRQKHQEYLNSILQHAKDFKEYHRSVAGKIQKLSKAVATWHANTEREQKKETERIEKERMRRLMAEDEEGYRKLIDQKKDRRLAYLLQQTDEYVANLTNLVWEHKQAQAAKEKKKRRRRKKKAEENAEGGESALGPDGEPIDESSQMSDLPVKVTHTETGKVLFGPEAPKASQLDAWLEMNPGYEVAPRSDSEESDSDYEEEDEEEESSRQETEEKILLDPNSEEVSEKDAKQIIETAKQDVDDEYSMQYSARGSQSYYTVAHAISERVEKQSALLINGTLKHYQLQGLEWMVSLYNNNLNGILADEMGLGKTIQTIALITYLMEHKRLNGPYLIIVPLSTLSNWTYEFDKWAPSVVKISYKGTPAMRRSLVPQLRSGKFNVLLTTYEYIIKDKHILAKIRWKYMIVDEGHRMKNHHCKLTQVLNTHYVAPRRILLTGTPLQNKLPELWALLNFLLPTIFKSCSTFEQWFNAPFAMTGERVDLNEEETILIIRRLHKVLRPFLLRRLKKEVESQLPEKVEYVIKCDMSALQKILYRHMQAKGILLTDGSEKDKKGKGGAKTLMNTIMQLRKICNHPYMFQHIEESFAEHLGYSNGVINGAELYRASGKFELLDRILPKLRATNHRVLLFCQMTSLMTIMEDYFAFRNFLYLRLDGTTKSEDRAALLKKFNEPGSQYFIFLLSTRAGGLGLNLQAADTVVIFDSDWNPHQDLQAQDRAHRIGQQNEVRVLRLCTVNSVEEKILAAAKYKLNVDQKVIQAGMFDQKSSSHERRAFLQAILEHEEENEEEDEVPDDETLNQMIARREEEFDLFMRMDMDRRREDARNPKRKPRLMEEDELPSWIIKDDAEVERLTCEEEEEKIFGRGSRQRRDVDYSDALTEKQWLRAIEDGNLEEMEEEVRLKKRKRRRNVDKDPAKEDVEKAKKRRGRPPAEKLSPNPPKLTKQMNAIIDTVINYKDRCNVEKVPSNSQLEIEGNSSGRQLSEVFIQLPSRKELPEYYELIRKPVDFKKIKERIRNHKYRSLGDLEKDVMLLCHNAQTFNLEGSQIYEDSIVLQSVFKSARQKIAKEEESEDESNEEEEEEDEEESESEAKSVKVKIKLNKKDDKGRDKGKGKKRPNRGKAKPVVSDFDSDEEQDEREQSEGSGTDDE

| SMILES | Emax [%] | DC50 [nM] |
| --- | --- | --- |
| Cc1ncsc1-c1ccc([C@H](C)NC(=O)[C@@H]2C[C@@H](O)CN2C(=O)[C@@H](NC(=O)CCCCCC(=O)N(C)CCCN(C)c2ccc(CCOc3cc(-c4ccccc4O)nnc3N)cc2)C(C)(C)C)cc1 (racemic) [Example 26, N′-[3-[4-[2-[3-amino-6-(2-hydroxyphenyl)pyridazin-4-yl]oxyethyl]-N-methyl-anilino]propyl]-N′-methyl-N-[rac-(1S)-2,2-dimethyl-1-[rac-(2S,4R)-4-hydroxy-2-[[rac-(1S)-1-[4-(4-methylthiazol-5-yl)phenyl]ethyl]carbamoyl]pyrrolidine-1-carbonyl]propyl]heptanediamide] | 60 | 1440 |
| Cc1ncsc1-c1ccc(CNC(=O)[C@@H]2C[C@@H](O)CN2C(=O)[C@@H](NC(=O)CCCCCCCCCCC(=O)N2CCN(Cc3cccc(C#Cc4cc(-c5ccccc5O)nnc4N)c3)CC2)C(C)(C)C)cc1 [Example 54, (2S,4R)-1-[(2S)-2-[[12-[4-[[3-[2-[3-amino-6-(2-hydroxyphenyl)pyridazin-4-yl]ethynyl]phenyl]methyl]piperazin-1-yl]-12-oxo-dodecanoyl]amino]-3,3-dimethyl-butanoyl]-4-hydroxy-N-[[4-(4-methylthiazol-5-yl)phenyl]methyl]pyrrolidine-2-carboxamide] | 35 | 503 |
| Cc1ncsc1-c1ccc(CNC(=O)[C@@H]2C[C@@H](O)CN2C(=O)[C@@H](NC(=O)CCCCCCCCC(=O)NC2C3CCC2CN(c2cc(-c4ccccc4O)nnc2N)C3)C(C)(C)C)cc1 (stereo partly drawn) [Example 89, N-[3-[3-amino-6-(2-hydroxyphenyl)pyridazin-4-yl]-3-azabicyclo[3.2.1]octan-8-yl]-N′-[(1S)-1-[(2S,4R)-4-hydroxy-2-[[4-(4-methylthiazol-5-yl)phenyl]methylcarbamoyl]pyrrolidine-1-carbonyl]-2,2-dimethyl-propyl]decanediamide] | 56 | 1010 |
| Cc1ncsc1-c1ccc([C@H](C)NC(=O)[C@@H]2C[C@@H](O)CN2C(=O)[C@@H](NC(=O)CCCCCCCCC(=O)N2CCN(c3cccc(N4CCCC(Oc5cc(-c6ccccc6O)nnc5N)C4)c3)CC2)C(C)(C)C)cc1 (mixture of isomers) [Example 91, rac-(2S,4R)-4-hydroxy-1-[rac-(2S)-2-[[10-[4-[3-[3-[3-amino-6-(2-hydroxyphenyl)pyridazin-4-yl]oxy-1-piperidyl]phenyl]piperazin-1-yl]-10-oxo-decanoyl]amino]-3,3-dimethyl-butanoyl]-N-[rac-(1S)-1-[4-(4-methylthiazol-5-yl)phenyl]ethyl]pyrrolidine-2-carboxamide] | 44 | 600 |
| Cc1ncsc1-c1ccc([C@H](C)NC(=O)[C@@H]2C[C@@H](O)CN2C(=O)[C@@H](NC(=O)CCCCCCCCCCC(=O)N2CCN(c3ccc(N4CCCC(Oc5cc(-c6ccccc6O)nnc5N)C4)cc3)CC2)C(C)(C)C)cc1 (mixture of isomers) [Example 48, rac-(2S,4R)-4-hydroxy-1-[rac-(2S)-2-[[12-[4-[4-[3-[3-amino-6-(2-hydroxyphenyl)pyridazin-4-yl]oxy-1-piperidyl]phenyl]piperazin-1-yl]-12-oxo-dodecanoyl]amino]-3,3-dimethyl-butanoyl]-N-[rac-(1S)-1-[4-(4-methylthiazol-5-yl)phenyl]ethyl]pyrrolidine-2-carboxamide] | 22 | 135 |
| Cc1ncsc1-c1ccc(CNC(=O)[C@@H]2C[C@@H](O)CN2C(=O)[C@@H](NC(=O)CCCCCCCCC(=O)N2CCN(Cc3cccc(-c4cc(-c5ccccc5O)nnc4N)c3F)CC2)C(C)(C)C)cc1 [Example 74, (2S,4R)-1-[(2S)-2-[[10-[4-[[3-[3-amino-6-(2-hydroxyphenyl)pyridazin-4-yl]-2-fluoro-phenyl]methyl]piperazin-1-yl]-10-oxo-decanoyl]amino]-3,3-dimethyl-butanoyl]-4-hydroxy-N-[[4-(4-methylthiazol-5-yl)phenyl]methyl]pyrrolidine-2-carboxamide] | 63 | 575 |
| Cc1ncsc1-c1ccc([C@H](C)NC(=O)[C@@H]2C[C@@H](O)CN2C(=O)[C@@H](NC(=O)CCOCCOCCOCCC(=O)N2CCN(c3ccc(N4CCCC(Oc5cc(-c6ccccc6O)nnc5N)C4)cc3)CC2)C(C)(C)C)cc1 (mixture of isomers) [Example 46, rac-(2S,4R)-4-hydroxy-1-[rac-(2S)-2-[3-[2-[2-[3-[4-[4-[3-[3-amino-6-(2-hydroxyphenyl)pyridazin-4-yl]oxy-1-piperidyl]phenyl]piperazin-1-yl]-3-oxo-propoxy]ethoxy]ethoxy]propanoylamino]-3,3-dimethyl-butanoyl]-N-[rac-(1S)-1-[4-(4-methylthiazol-5-yl)phenyl]ethyl]pyrrolidine-2-carboxamide] | 51 | 2610 |
| Cc1ncsc1-c1ccc(CNC(=O)[C@@H]2C[C@@H](O)CN2C(=O)[C@@H](NC(=O)CCCCCCCCC(=O)N2CC=C(c3cc(-c4ccccc4O)nnc3N)CC2)C(C)(C)C)cc1 [Example 17, (2S,4R)-1-[(2S)-2-[[10-[4-[3-amino-6-(2-hydroxyphenyl)pyridazin-4-yl]-3,6-dihydro-2H-pyridin-1-yl]-10-oxo-decanoyl]amino]-3,3-dimethyl-butanoyl]-4-hydroxy-N-[[4-(4-methylthiazol-5-yl)phenyl]methyl]pyrrolidine-2-carboxamide] | 50 | 2820 |
| Cc1ncsc1-c1ccc([C@H](C)NC(=O)[C@@H]2C[C@@H](O)CN2C(=O)[C@@H](NC(=O)CCCCCCCCCCCCC(=O)N2CCN(c3ccc(N4CCCC(Oc5cc(-c6ccccc6O)nnc5N)C4)cc3)CC2)C(C)(C)C)cc1 (mixture of isomers) [Example 76, rac-(2S,4R)-4-hydroxy-1-[rac-(2S)-2-[[14-[4-[4-[3-[3-amino-6-(2-hydroxyphenyl)pyridazin-4-yl]oxy-1-piperidyl]phenyl]piperazin-1-yl]-14-oxo-tetradecanoyl]amino]-3,3-dimethyl-butanoyl]-N-[rac-(1S)-1-[4-(4-methylthiazol-5-yl)phenyl]ethyl]pyrrolidine-2-carboxamide] | 31 | 207 |
| Cc1ncsc1-c1ccc(CNC(=O)[C@@H]2C[C@@H](O)CN2C(=O)[C@@H](NC(=O)CCCCCCCCC(=O)NC(COc2cc(-c3ccccc3O)nnc2N)c2ccccc2)C(C)(C)C)cc1 (mixture of isomers) [Example 63, N-[2-[3-amino-6-(2-hydroxyphenyl)pyridazin-4-yl]oxy-1-phenyl-ethyl]-N′-[rac-(1S)-2,2-dimethyl-1-[rac-(2S,4R)-4-hydroxy-2-[[4-(4-methylthiazol-5-yl)phenyl]methylcarbamoyl]pyrrolidine-1-carbonyl]propyl]decanediamide] | 48 | 798 |
| Cc1ncsc1-c1ccc([C@H](C)NC(=O)[C@@H]2C[C@@H](O)CN2C(=O)[C@@H](NC(=O)CCCCCC(=O)N2CCN(C(=O)c3ccc(OC4CN(c5cc(-c6ccccc6O)nnc5N)C4)cc3)CC2)C(C)(C)C)cc1 [Example 103, (2S,4R)-1-[(2S)-2-[[7-[4-[4-[1-[3-amino-6-(2-hydroxyphenyl)pyridazin-4-yl]azetidin-3-yl]oxybenzoyl]piperazin-1-yl]-7-oxo-heptanoyl]amino]-3,3-dimethyl-butanoyl]-4-hydroxy-N-[(1S)-1-[4-(4-methylthiazol-5-yl)phenyl]ethyl]pyrrolidine-2-carboxamide] | 60 | 1890 |
